Laboratory results reported in ChEMBL document CHEMBL5236662, “Synthesis and biological evaluation of tert-butyl ester and ethyl ester prodrugs of L-γ-methyleneglutamic acid amides for cancer” (Bioorg Med Chem, 2023).

Tested on: MCF7
Assay: Antiproliferative activity against human MCF7 cells assessed as inhibition of cell growth incubated for 72 hrs by Hoechst 33342/propidium iodide staining based fluorescence analysis
Assay type: functional
Details: MCF7, 72 h

Structure (SMILES)	IC50 [µM]
C=C(C[C@H](NC(=O)OC(C)(C)C)C(=O)OCC)C(=O)NCc1ccc(F)cc1	> 1000
C=C(C[C@H](NC(=O)OC(C)(C)C)C(=O)OCC)C(=O)Nc1ccc(Cl)cc1	> 1000
C=C1C[C@@H](C(=O)OCC)NC1=O	> 1000
C=C(C[C@H](NC(=O)OC(C)(C)C)C(=O)OC(C)(C)C)C(=O)N1CCCCC1	< 1000
C=C(C[C@H](NC(=O)OC(C)(C)C)C(=O)OC(C)(C)C)C(=O)Nc1ccccc1	> 1000

Now from value to compound:

IC50 [µM]	Structure (SMILES)
< 1000	O=C(c1cc(Cc2n[nH]c(=O)c3ccccc23)ccc1F)N1CCN(C(=O)C2CC2)CC1 [OLAPARIB]
> 1000	C=C(C[C@H](NC(=O)OC(C)(C)C)C(=O)OCC)C(=O)NC1CC1
> 1000	C=C1C[C@@H](C(=O)OC(C)(C)C)N(C(=O)OC(C)(C)C)C1=O
> 1000	C=C(C[C@H](NC(=O)OC(C)(C)C)C(=O)OC(C)(C)C)C(=O)Nc1ccc(F)cc1

Tested on: SK-BR-3
Assay: Antiproliferative activity against human SK-BR-3 cells assessed as inhibition of cell growth incubated for 72 hrs by Hoechst 33342/propidium iodide staining based fluorescence analysis
Assay type: functional
Details: SK-BR-3, 72 h

Structure (SMILES)	IC50 [µM]
C=C(C[C@H](NC(=O)OC(C)(C)C)C(=O)OCC)C(=O)NCc1ccc(F)cc1	< 1000
C=C(C[C@H](NC(=O)OC(C)(C)C)C(=O)OCC)C(=O)Nc1ccc(Cl)cc1	< 1000
C=C1C[C@@H](C(=O)OCC)NC1=O	> 1000
C=C(C[C@H](NC(=O)OC(C)(C)C)C(=O)OC(C)(C)C)C(=O)N1CCCCC1	< 1000
C=C(C[C@H](NC(=O)OC(C)(C)C)C(=O)OC(C)(C)C)C(=O)Nc1ccccc1	< 1000

Continued, values first:

IC50 [µM]	Structure (SMILES)
< 1000	O=C(c1cc(Cc2n[nH]c(=O)c3ccccc23)ccc1F)N1CCN(C(=O)C2CC2)CC1 [OLAPARIB]
> 1000	C=C(C[C@H](NC(=O)OC(C)(C)C)C(=O)OCC)C(=O)NC1CC1
> 1000	C=C1C[C@@H](C(=O)OC(C)(C)C)N(C(=O)OC(C)(C)C)C1=O
< 1000	C=C(C[C@H](NC(=O)OC(C)(C)C)C(=O)OC(C)(C)C)C(=O)Nc1ccc(F)cc1

Tested on: MDA-MB-231
Assay: Antiproliferative activity against human MDA-MB-231 cells assessed as inhibition of cell growth incubated for 72 hrs by Hoechst 33342/propidium iodide staining based fluorescence analysis
Assay type: functional
Details: MDA-MB-231, 72 h

Structure (SMILES)	IC50 [µM]
C=C(C[C@H](NC(=O)OC(C)(C)C)C(=O)OCC)C(=O)NCc1ccc(F)cc1	> 1000
C=C(C[C@H](NC(=O)OC(C)(C)C)C(=O)OCC)C(=O)Nc1ccc(Cl)cc1	> 1000
C=C1C[C@@H](C(=O)OCC)NC1=O	> 1000
C=C(C[C@H](NC(=O)OC(C)(C)C)C(=O)OC(C)(C)C)C(=O)N1CCCCC1	< 1000
C=C(C[C@H](NC(=O)OC(C)(C)C)C(=O)OC(C)(C)C)C(=O)Nc1ccccc1	< 1000

More lines, now with the values ahead:

IC50 [µM]	Structure (SMILES)
< 1000	O=C(c1cc(Cc2n[nH]c(=O)c3ccccc23)ccc1F)N1CCN(C(=O)C2CC2)CC1 [OLAPARIB]
> 1000	C=C(C[C@H](NC(=O)OC(C)(C)C)C(=O)OCC)C(=O)NC1CC1
< 1000	C=C1C[C@@H](C(=O)OC(C)(C)C)N(C(=O)OC(C)(C)C)C1=O
< 1000	C=C(C[C@H](NC(=O)OC(C)(C)C)C(=O)OC(C)(C)C)C(=O)Nc1ccc(F)cc1

Tested on: not listed separately
Assay: (§1) Cytotoxicity against human MCF-10A cells assessed as inhibition of cell growth incubated for 72 hrs by Hoechst 33342/propidium iodide staining based fluorescence analysis
Assay type: toxicity
Details: human, MCF-10A cells

Structure (SMILES)	IC50 at 72 h [µM]
C=C(C[C@H](NC(=O)OC(C)(C)C)C(=O)OCC)C(=O)NCc1ccc(F)cc1	> 1000
O=C(c1cc(Cc2n[nH]c(=O)c3ccccc23)ccc1F)N1CCN(C(=O)C2CC2)CC1 [OLAPARIB]	> 1000
C=C(C[C@H](NC(=O)OC(C)(C)C)C(=O)OCC)C(=O)Nc1ccc(Cl)cc1	> 1000
C=C(C[C@H](NC(=O)OC(C)(C)C)C(=O)OCC)C(=O)NC1CC1	> 1000
C=C1C[C@@H](C(=O)OC(C)(C)C)N(C(=O)OC(C)(C)C)C1=O	> 1000
C=C1C[C@@H](C(=O)OCC)NC1=O	> 1000
C=C(C[C@H](NC(=O)OC(C)(C)C)C(=O)OC(C)(C)C)C(=O)N1CCCCC1	> 1000
C=C(C[C@H](NC(=O)OC(C)(C)C)C(=O)OC(C)(C)C)C(=O)Nc1ccccc1	> 1000

Tested on: MCF-10A
Assay: as §1
Assay type: toxicity
Details: mcf-10a

Structure (SMILES)	IC50 [µM]
C=C(C[C@H](NC(=O)OC(C)(C)C)C(=O)OC(C)(C)C)C(=O)Nc1ccc(F)cc1	< 1000

Tested on: MCF-10A
Assay: Cytotoxicity against human MCF-10A cells assessed as inhibition of cell growth incubated for 24 hrs by Hoechst 33342/propidium iodide staining based fluorescence analysis
Assay type: toxicity
Details: mcf-10a

Structure (SMILES)	IC50 [µM]
O=C(c1cc(Cc2n[nH]c(=O)c3ccccc23)ccc1F)N1CCN(C(=O)C2CC2)CC1 [OLAPARIB]	> 1000

Tested on: MCF7
Assay: Antiproliferative activity against human MCF7 cells assessed as inhibition of cell growth incubated for 24 hrs by Hoechst 33342/propidium iodide staining based fluorescence analysis
Assay type: functional
Details: MCF7, 24 h

Structure (SMILES)	IC50 [µM]
O=C(c1cc(Cc2n[nH]c(=O)c3ccccc23)ccc1F)N1CCN(C(=O)C2CC2)CC1 [OLAPARIB]	> 1000
